Data on 18 compounds can be found in patent US9745320B2, “Five-and-six-membered heterocyclic compound, and preparation method, pharmaceutical composition and use thereof” (SHANGHAI CHEMEXPLORER CO., LTD., priority 2013, dated 2017).

Like-named read-outs stand apart in the source and are kept apart here.

Holding throughout (type): biochemical
Test [1] deals with T1, JAK3 (Homo sapiens, UniProt P52333).
T1 sequence (P52333 1-1124): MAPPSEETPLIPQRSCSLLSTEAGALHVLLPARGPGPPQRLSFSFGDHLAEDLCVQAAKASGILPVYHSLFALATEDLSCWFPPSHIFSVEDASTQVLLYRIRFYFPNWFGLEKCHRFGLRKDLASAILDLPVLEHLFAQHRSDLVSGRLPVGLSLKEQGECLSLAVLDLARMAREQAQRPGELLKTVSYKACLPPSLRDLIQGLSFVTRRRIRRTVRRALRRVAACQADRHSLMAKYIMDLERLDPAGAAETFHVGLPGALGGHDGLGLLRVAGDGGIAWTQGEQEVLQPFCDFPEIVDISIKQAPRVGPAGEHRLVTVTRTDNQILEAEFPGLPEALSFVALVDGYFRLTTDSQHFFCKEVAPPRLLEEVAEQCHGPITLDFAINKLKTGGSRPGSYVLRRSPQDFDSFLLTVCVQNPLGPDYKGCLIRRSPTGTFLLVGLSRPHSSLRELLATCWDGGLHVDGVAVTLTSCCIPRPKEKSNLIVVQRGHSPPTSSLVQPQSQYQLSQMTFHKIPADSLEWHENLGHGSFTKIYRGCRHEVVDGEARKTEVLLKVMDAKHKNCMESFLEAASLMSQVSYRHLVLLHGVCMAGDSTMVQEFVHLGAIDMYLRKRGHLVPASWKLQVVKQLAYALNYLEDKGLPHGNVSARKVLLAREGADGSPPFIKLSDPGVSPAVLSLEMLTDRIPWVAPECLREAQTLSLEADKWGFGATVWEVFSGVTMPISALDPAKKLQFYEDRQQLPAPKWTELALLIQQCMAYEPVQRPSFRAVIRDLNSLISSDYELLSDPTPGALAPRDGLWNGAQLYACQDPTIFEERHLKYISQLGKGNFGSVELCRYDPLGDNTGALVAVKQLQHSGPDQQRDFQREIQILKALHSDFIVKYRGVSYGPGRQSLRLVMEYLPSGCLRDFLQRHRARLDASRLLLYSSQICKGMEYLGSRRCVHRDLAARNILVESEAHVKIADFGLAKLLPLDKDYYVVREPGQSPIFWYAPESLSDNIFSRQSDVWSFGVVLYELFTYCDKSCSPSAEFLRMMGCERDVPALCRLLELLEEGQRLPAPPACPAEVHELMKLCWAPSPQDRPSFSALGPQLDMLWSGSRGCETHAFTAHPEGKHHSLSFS
The experiment in a line: JAK 3 enzymatic inhibitory activity IC50 assay (Caliper conversion rate).

For test [2], the target named is JAK2 (Homo sapiens, UniProt O60674). The test is described as follows: JAK 2 enzymatic inhibitory activity IC50 assay (Caliper conversion rate). The settings on record: Km ATP, 28° C., 1 hour. In short, it runs like this: (§1)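 Human JAK1 or JAK2 enzyme was preincubated with graded compound (2% DMSO) in HEPES pH 7.5/Brij-35/DTT buffer (JAK1 also with Triton), then peptide substrate, 10 mM MgCl2 and ATP at Km were added. Reactions ran 1 hour at 28° C; Caliper conversion rate gave inhibition, averaged over two tests, for IC50.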

The target in test [3] is JAK1 (Homo sapiens, UniProt P23458). The test is described as follows: JAK 1 enzymatic inhibitory activity IC50 assay (Caliper conversion rate). The settings on record: Km ATP, 28° C., 1 hour. In short, it runs like this:
as §1

Where [4] appears, read: Km ATP, 28° C., 1 hour, read-out: JAK 3 enzymatic inhibitory activity IC50.

JAK1, sequence (P23458 whole entry, species assumed): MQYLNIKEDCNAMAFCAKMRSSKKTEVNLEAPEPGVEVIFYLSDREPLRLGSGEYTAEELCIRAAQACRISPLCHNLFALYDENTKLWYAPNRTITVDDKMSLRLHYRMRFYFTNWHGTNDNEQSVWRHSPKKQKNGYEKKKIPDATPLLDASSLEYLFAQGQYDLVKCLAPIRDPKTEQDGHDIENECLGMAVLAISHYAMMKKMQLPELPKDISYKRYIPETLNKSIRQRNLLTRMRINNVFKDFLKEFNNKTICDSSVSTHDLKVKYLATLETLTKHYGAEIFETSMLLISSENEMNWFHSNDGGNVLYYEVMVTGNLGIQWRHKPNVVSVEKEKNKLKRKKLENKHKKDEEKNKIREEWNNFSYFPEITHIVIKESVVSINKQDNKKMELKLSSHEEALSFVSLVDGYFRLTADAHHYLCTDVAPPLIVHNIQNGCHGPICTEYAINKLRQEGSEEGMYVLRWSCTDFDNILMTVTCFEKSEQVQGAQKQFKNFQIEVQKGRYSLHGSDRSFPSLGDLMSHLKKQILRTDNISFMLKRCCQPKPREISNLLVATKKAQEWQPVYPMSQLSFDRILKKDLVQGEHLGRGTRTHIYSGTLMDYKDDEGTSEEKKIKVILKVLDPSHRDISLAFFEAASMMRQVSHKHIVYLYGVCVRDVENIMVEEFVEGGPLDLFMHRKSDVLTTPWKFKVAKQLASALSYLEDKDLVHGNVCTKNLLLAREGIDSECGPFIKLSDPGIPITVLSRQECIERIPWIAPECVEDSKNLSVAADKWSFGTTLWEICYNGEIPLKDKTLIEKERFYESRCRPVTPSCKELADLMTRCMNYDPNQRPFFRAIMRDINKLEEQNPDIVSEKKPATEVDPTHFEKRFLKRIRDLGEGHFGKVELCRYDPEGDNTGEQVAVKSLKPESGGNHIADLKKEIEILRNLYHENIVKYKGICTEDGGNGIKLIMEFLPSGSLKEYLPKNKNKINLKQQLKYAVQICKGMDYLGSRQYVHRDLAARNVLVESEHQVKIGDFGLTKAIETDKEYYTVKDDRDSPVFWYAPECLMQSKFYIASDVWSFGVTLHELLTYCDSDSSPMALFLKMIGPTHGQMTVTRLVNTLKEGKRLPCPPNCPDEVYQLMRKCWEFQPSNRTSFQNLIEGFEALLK
JAK2, sequence (O60674 whole entry, species assumed): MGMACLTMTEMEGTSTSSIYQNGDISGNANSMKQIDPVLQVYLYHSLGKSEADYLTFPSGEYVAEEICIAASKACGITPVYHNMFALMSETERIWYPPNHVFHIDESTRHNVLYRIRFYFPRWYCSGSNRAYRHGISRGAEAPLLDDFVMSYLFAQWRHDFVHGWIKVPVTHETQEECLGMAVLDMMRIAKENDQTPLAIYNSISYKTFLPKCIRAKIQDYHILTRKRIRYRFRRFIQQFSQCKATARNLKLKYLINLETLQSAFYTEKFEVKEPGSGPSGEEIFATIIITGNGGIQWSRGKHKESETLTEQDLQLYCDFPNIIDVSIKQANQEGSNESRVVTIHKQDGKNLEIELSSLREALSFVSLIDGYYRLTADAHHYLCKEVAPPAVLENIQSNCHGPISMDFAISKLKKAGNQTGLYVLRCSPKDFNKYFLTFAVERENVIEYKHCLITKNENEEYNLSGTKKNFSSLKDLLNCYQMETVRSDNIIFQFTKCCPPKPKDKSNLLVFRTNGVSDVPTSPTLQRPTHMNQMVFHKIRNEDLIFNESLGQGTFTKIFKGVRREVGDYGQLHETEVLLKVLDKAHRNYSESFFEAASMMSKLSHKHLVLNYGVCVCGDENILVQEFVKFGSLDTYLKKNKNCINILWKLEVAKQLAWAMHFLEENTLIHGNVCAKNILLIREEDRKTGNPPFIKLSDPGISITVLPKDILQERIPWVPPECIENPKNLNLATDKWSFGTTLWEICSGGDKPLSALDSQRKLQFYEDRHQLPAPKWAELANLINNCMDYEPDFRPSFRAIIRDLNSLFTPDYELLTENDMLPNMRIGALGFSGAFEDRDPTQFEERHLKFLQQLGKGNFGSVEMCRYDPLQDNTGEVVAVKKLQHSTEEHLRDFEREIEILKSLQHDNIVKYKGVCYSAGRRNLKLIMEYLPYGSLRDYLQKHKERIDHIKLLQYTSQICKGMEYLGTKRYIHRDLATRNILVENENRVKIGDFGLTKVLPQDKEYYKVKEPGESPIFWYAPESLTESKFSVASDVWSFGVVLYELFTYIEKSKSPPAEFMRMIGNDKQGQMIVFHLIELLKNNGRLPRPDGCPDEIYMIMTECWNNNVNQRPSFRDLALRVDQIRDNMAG

For `CCS(=O)(=O)N1CC(CC#N)(n2cc(-c3nc(Nc4cnn(CCO)c4)nc4ccsc34)cn2)C1` [Compound T-51, 2-(1-(Ethylsulfonyl)-3-(4-(2-((1-(2-hydroxyethyl)-1H-pyrazol-4-yl)amino)thieno[3,2-d]pyrimidin-4-yl)-1H-pyrazol-1-yl)azetidin-3-yl)acetonitrile], the half-inhibitory concentration (IC50) in test [1] (setting [4]), in test [2] and in test [3] was less than 50 nM throughout.

Regarding `CCS(=O)(=O)N1CC(CC#N)(n2cc(-c3nc(Nc4cnn(C(C)=O)c4)nc4ccsc34)cn2)C1` [Compound T-52, 2-(3-(4-(2-((1-Acetyl-1H-pyrazol-4-yl)amino)thieno[3,2-d]pyrimidin-4-yl)-1H-pyrazol-1-yl)-1-(ethylsulfonyl)azetidin-3-yl)acetonitrile], the IC50 (usually the concentration needed to halve the response being measured) was 50 to 500 nM in test [1] (setting [4]), less than 50 nM in test [2] and less than 50 nM in test [3].

In the case of `CCS(=O)(=O)N1CC(CC#N)(n2cc(-c3nc(Nc4cnn(CCN5CCOCC5)c4)nc4ccsc34)cn2)C1` [Compound T-53, 2-(1-(Ethylsulfonyl)-3-(4-(2-((1-(2-morpholinoethyl)-1H-pyrazol-4-yl)amino)thieno[3,2-d]pyrimidin-4-yl)-1H-pyrazol-1-yl)azetidin-3-yl)acetonitrile], the IC50 in test [1] (setting [4]) is less than 50 nM; in test [2], less than 50 nM; in test [3], 50 to 500 nM.

With `CCS(=O)(=O)N1CC(CC#N)(n2cc(-c3nc(Nc4cnn(C5CN(C)C5)c4)nc4ccsc34)cn2)C1` [Compound T-54, 2-(1-(Ethylsulfonyl)-3-(4-(2-((1-(1-methylazetidin-3-yl)-1H-pyrazol-4-yl)amino)thieno[3,2-d]pyrimidin-4-yl)-1H-pyrazol-1-yl)azetidin-3-yl)acetonitrile], the IC50 in test [1] (setting [4]) is 50 to 500 nM; in test [2] it was less than 50 nM; in test [3] it was 50 to 500 nM.

For `CCS(=O)(=O)N1CC(CC#N)(n2cc(-c3cc(Nc4ccccc4)nc4ccnn34)cn2)C1` [Compound T-55, 2-(1-(Ethylsulfonyl)-3-(4-(5-(phenylamino)pyrazolo[1,5-a]pyrimidin-7-yl)-1H-pyrazol-1-yl)azetidin-3-yl)acetonitrile], the IC50 in test [1], in test [2] and in test [3] was more than 1000 nM in each case.

For `N#Cc1ccc(-c2nc(Nc3ccccc3)nc3ccsc23)cc1F` [Compound T-56, 2-Fluoro-4-(2-(phenylamino)thieno[3,2-d]pyrimidin-4-yl)benzonitrile], the IC50 in test [1] (setting [4]), in test [2] and in test [3] was more than 1000 nM each time.

On to `CCS(=O)(=O)N1CC(CC#N)(n2cc(-c3nc(Nc4ccc5[nH]ncc5c4)nc4ccsc34)cn2)C1` [Compound T-57, 2-(3-(4-(2-((1H-Indazol-5-yl)amino)thieno[3,2-d]pyrimidin-4-yl)-1H-pyrazol-1-yl)-1-(ethylsulfonyl)azetidin-3-yl)acetonitrile], for which the IC50 was 50 to 500 nM in test [1] (setting [4]), less than 50 nM in test [2] and 50 to 500 nM in test [3].

`CCS(=O)(=O)N1CC(CC#N)(n2cc(-c3nc(Nc4ccc5[nH]cnc5c4)nc4ccsc34)cn2)C1` [Compound T-58, 2-(3-(4-(2-((1H-Benzo[d]imidazol-5-yl)amino)thieno[3,2-d]pyrimidin-4-yl)-1H-pyrazol-1-yl)-1-(ethylsulfonyl)azetidin-3-yl)acetonitrile]: the 50% inhibitory concentration (IC50) in test [1] (setting [4]) is 50 to 500 nM; in test [2] it was less than 50 nM; in test [3], less than 50 nM.

Turning to `CCS(=O)(=O)N1CC(CC#N)(n2cc(-c3nc(Nc4ccc(-n5cnnn5)cc4)nc4ccsc34)cn2)C1` [Compound T-59, 2-(3-(4-(2-((4-(1H-Tetrazol-1-yl)phenyl)amino)thieno[3,2-d]pyrimidin-4-yl)-1H-pyrazol-1-yl)-1-(ethylsulfonyl)azetidin-3-yl)acetonitrile], the results for the half-inhibitory concentration (IC50) in test [1] (setting [4]), in test [2] and in test [3] were 50 to 500 nM, less than 50 nM and less than 50 nM, respectively.

With `CCS(=O)(=O)N1CC(CC#N)(n2cc(-c3nc(Nc4cnn(CCCN5CCOCC5)c4)nc4ccsc34)cn2)C1` [Compound T-60, 2-(1-(Ethylsulfonyl)-3-(4-(2-((1-(3-morpholinopropyl)-1H-pyrazol-4-yl)amino)thieno[3,2-d]pyrimidin-4-yl)-1H-pyrazol-1-yl)azetidin-3-yl)acetonitrile], the IC50 in test [1] (setting [4]), in test [2] and in test [3] was less than 50 nM each time.

As to `CCS(=O)(=O)N1CC(CC#N)(n2cc(-c3nc(Nc4cnn(CCCc5nn[nH]n5)c4)nc4ccsc34)cn2)C1` [Compound T-61, 2-(3-(4-(2-((1-(3-(2H-Tetrazol-5-yl)propyl)-1H-pyrazol-4-yl)amino)thieno[3,2-d]pyrimidin-4-yl)-1H-pyrazol-1-yl)-1-(ethylsulfonyl)azetidin-3-yl)acetonitrile], the IC50 in test [1] (setting [4]), in test [2] and in test [3] was less than 50 nM in each case.

Consider `CCS(=O)(=O)N1CC(CC#N)(n2cc(-c3nc(Nc4ccc(N5CCOCC5)nc4)nc4ccsc34)cn2)C1` [Compound T-62, 2-(1-(Ethylsulfonyl)-3-(4-(2-((6-morpholinopyridin-3-yl)amino)thieno[3,2-d]pyrimidin-4-yl)-1H-pyrazol-1-yl)azetidin-3-yl)acetonitrile], for which the IC50 was 50 to 500 nM in test [1] (setting [4]), less than 50 nM in test [2] and 50 to 500 nM in test [3].

For the compound `CCS(=O)(=O)N1CC(CC#N)(n2cc(-c3nc(Nc4cnc(N5CCOCC5)nc4)nc4ccsc34)cn2)C1` [Compound T-63, 2-(1-(Ethylsulfonyl)-3-(4-(2-((2-morpholinopyrimidin-5-yl)amino)thieno[3,2-d]pyrimidin-4-yl)-1H-pyrazol-1-yl)azetidin-3-yl)acetonitrile], the IC50 in test [1] (setting [4]) was 500 to 1000 nM; in test [2] it was less than 50 nM; in test [3], 500 to 1000 nM.

Take `CCS(=O)(=O)N1CC(CC#N)(n2cc(-c3nc(Nc4cnn(C5CCN(C)CC5)c4)nc4ccsc34)cn2)C1` [Compound T-64, 2-(1-(Ethylsulfonyl)-3-(4-(2-((1-(1-methylpiperidin-4-yl)-1H-pyrazol-4-yl)amino)thieno[3,2-d]pyrimidin-4-yl)-1H-pyrazol-1-yl)azetidin-3-yl)acetonitrile]: the IC50 in test [1] (setting [4]), in test [2] and in test [3] was less than 50 nM throughout.

Turning to `CCS(=O)(=O)N1CC(CC#N)(n2cc(-c3nc(Nc4cnn(C5CNC5)c4)nc4ccsc34)cn2)C1` [Compound T-65, 2-(3-(4-(2-((1-(Azetidin-3-yl)-1H-pyrazol-4-yl)amino)thieno[3,2-d]pyrimidin-4-yl)-1H-pyrazol-1-yl)-1-(ethylsulfonyl)azetidin-3-yl)acetonitrile], the IC50 was 50 to 500 nM in test [1] (setting [4]), less than 50 nM in test [2] and less than 50 nM in test [3].

As for `CCS(=O)(=O)N1CC(CC#N)(n2cc(-c3nc(Nc4cnn(C5CN(CC6CC6)C5)c4)nc4ccsc34)cn2)C1` [Compound T-66, 2-(3-(4-(2-((1-(1-(Cyclopropylmethyl)azetidin-3-yl)-1H-pyrazol-4-yl)amino)thieno[3,2-d]pyrimidin-4-yl)-1H-pyrazol-1-yl)-1-(ethylsulfonyl)azetidin-3-yl)acetonitrile], the 50% inhibitory concentration (IC50) in test [1] (setting [4]), in test [2] and in test [3] was less than 50 nM in each case.

Turning to `CCS(=O)(=O)N1CC(CC#N)(n2cc(-c3nc(Nc4cnn(CCCN5CCN(C)CC5)c4)nc4ccsc34)cn2)C1` [Compound T-67, 2-(1-(Ethylsulfonyl)-3-(4-(2-((1-(3-(4-methylpiperazin-1-yl)propyl)-1H-pyrazol-4-yl)amino)thieno[3,2-d]pyrimidin-4-yl)-1H-pyrazol-1-yl)azetidin-3-yl)acetonitrile], the concentration for half-maximal inhibition (IC50) in test [1] (setting [4]) is less than 50 nM; in test [2] it was less than 50 nM; in test [3], 50 to 500 nM.

With `CCS(=O)(=O)N1CC(CC#N)(n2cc(-c3nc(Nc4cnn(C)c4)nc4cc(Cl)sc34)cn2)C1` [Compound T-68, 2-(3-(4-(6-Chloro-2-((1-methyl-1H-pyrazol-4-yl)amino)thieno[3,2-d]pyrimidin-4-yl)-1H-pyrazol-1-yl)-1-(ethylsulfonyl)azetidin-3-yl)acetonitrile], the IC50 in test [1] (setting [4]) was more than 1000 nM; in test [2], 50 to 500 nM; in test [3], more than 1000 nM.
